In patent publication EP4722209A1 (Beijing Shenogen Pharma Group, priority 2023, dated 2024):

What follows are compounds tested against T1, ERα (Homo sapiens, UniProt P03372) (assay: ER degradation activity in MCF-7 cells (Western blot, grayscale intensity)). Conditions: 6 hours treatment, 1 nM to 100 nM, concentration required to degrade 50% of the target protein.
T1 construct: host or cells: MCF-7
T1 sequence (P03372 1-595): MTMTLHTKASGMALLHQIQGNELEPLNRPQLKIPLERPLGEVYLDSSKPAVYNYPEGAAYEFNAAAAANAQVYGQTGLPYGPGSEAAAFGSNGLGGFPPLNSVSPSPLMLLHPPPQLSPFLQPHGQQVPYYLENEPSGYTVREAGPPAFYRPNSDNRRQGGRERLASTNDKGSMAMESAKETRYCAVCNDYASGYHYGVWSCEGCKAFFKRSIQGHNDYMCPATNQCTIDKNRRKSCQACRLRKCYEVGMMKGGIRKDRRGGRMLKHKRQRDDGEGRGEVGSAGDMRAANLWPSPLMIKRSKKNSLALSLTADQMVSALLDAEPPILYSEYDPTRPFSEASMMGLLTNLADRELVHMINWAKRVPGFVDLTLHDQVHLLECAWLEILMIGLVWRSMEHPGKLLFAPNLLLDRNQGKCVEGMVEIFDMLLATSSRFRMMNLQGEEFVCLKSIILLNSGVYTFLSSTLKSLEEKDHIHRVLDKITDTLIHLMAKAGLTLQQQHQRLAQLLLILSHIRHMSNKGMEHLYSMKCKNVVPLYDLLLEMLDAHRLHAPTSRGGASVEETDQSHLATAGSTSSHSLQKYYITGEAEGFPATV
Assay type: cell-based
Procedure: ERα-positive human breast cancer cells MCF-7 (ATCC, HTB-22) were cultured with EMEM medium (ATCC, catalog number 30-2003) containing 10% fetal bovine serum (Thermo Fisher, catalog number 10099141) and 10 µg/mL bovine insulin in 25 cm^2 or 75 cm^2 plastic tissue culture flasks in a 37 °C incubator with 5% CO2. The cells were passaged 2 to 3 times per week. MCF-7 cells were seeded in 6-well plate at 1×10^6 cells/well with 1.8 mL culture medium per well, and cultured in a 37 °C incubator with 95% air and 5% CO2. After 24 hours, the test compounds were added: the compounds were serially diluted 10-fold in DMSO starting from 10 mM (dissolved in DMSO) to prepare gradient stock solutions. A complete culture medium containing 1% DMSO was prepared for further dilution, temporarily named as the "dilution buffer." Working solutions were prepared by diluting each stock solution with 99 times the volume of dilution buffer, that is, by adding 1 µL of the 10 mM stock solution to 99 µL of the dilution buffer and mixing thoroughly.
Finally, […] of the working solution was added to the cell-seeded culture plate. The final concentration of DMSO in the cell culture medium was 0.2%, and the final concentration of the test compounds ranged from 1 nM to 100 nM. The cells were then incubated at 37 °C for 6 hours.
The culture medium was removed, and the cells were washed twice with ice cold PBS. 1 mL of PBS was added to each well, and the cells were collected into EP tubes using a cell scraper, and centrifuged at 4 °C, 4000 rpm for 5 minutes. PBS was aspirated. Total protein was extracted using the Minute™ Mammalian Tissue/Cell Total Protein Extraction Reagent. The protein concentration was measured using the BCA protein assay kit. 30 µg of protein was taken and mixed with 5× SDS-PAGE loading buffer, boiled for 10 minutes, and cooled. The samples were loaded into wells of a precast gel, with constant voltage at 80 V for 30 minutes, and then the voltage was changed to 120 V after the samples entered the resolving gel. The "sandwich" (sponge - filter paper - gel - membrane - filter paper - sponge) was assembled for Bio-Rad's Transblot. Transfer was performed for 1 hour at 0.3 amp at 4 °C. The sample was blocked with 5% fat-free milk for 1 hour, and incubated with Estrogen Receptor alpha Antibody (Thermo Fisher, catalog number MA5-14104) overnight at 4 °C. The membrane was washed with TBST to remove non-specifically bound antibodies, and then incubated with goat anti-mouse IgG-HRP secondary antibody for 1 hour at room temperature, and was visualized using ECL. The protein degradation level was calculated by measuring the grayscale intensity.
The DC50 values (i.e., the concentration of the test compounds required to degrade 50% of the target protein) were calculated and shown in Table 1. A corresponds to a DC50 value below 10 nM, B corresponds to a DC50 value greater than 10 nM and less than 100 nM, and C corresponds to DC50 values greater than 100 nM. Table 1. The DC50 values of exemplary compounds in MCF-7 cells

DC50 [µM]	Compound
> 0.1	CC1(C)CC(=C(c2ccc(N3CCN(C4CC5(CCN(c6ccc7c(c6)CN(C6CCC(=O)NC6=O)C7=O)C5)C4)CC3)nc2)c2ccc3[nH]nc(F)c3c2)CC(C)(C)O1 (stereo not drawn) [Compound 53]
> 0.1	CC1(C)CC(=C(c2ccc(N3CCC4(CC3)CC(CN3CCN(c5ccc6c(c5)CN(C5CCC(=O)NC5=O)C6=O)CC3)C4)nc2)c2ccc3[nH]nc(F)c3c2)CC(C)(C)O1 (stereo not drawn) [Compound 54]
> 0.1	CC1(C)CC(=C(c2ccc3[nH]nc(F)c3c2)c2c(F)cc(N3CCC(CN4CCN(c5ccc6c(c5)CN(C5CCC(=O)NC5=O)C6=O)CC4)CC3)cc2F)CC(C)(C)O1 (stereo not drawn) [Compound 55]
< 0.01	CC1(C)CC(=C(c2ccc(N3CCC(CNC4CN(c5ccc6c(c5)CN(C5CCC(=O)NC5=O)C6=O)C4)CC3)nc2)c2ccc3[nH]nc(F)c3c2)CC(C)(C)O1 (stereo not drawn) [Compound 57]
> 0.1	CC1(C)CC(=C(c2ccc(N3CCC(N4CCN(c5ccc6c(c5)CN(C5CCC(=O)NC5=O)C6=O)CC4)CC3)cc2)c2ccc3[nH]ncc3c2)CC(C)(C)O1 (stereo not drawn) [Compound 58]
0.01 to 0.1	CC1(C)CC(=C(c2ccc(N3CCC(F)(CN4CCN(c5ccc6c(c5)CN(C5CCC(=O)NC5=O)C6=O)CC4)CC3)nc2)c2ccc3[nH]nc(F)c3c2)CC(C)(C)O1 (stereo not drawn) [Compound 59]
> 0.1	CC1(C)CC(=C(c2ccc(OC3CCN(C4CCN(c5ccc6c(c5)CN(C5CCC(=O)NC5=O)C6=O)CC4)CC3)nc2)c2ccc3[nH]nc(F)c3c2)CC(C)(C)O1 (stereo not drawn) [Compound 60]
> 0.1	CC1(C)CC(=C(c2ccc(N3CCC4(CC3)CC(N3CCN(c5ccc6c(c5)CN(C5CCC(=O)NC5=O)C6=O)CC3)C4)cc2)c2ccc3[nH]nc(F)c3c2)CC(C)(C)O1 (stereo not drawn) [Compound 62]
> 0.1	CC1(C)CC(=C(c2ccc(N3CCC4(CC3)CC(N3CCC(c5ccc6c(c5)CN(C5CCC(=O)NC5=O)C6=O)CC3)C4)nc2)c2ccc3[nH]nc(F)c3c2)CC(C)(C)O1 (stereo not drawn) [Compound 63]
> 0.1	CC1(C)CC(=C(c2ccc(N3CCN(C(=O)C4CCN(c5ccc6c(c5)CN(C5CCC(=O)NC5=O)C6=O)CC4)CC3)nc2)c2ccc3[nH]nc(F)c3c2)CC(C)(C)O1 (stereo not drawn) [Compound 65]
0.01 to 0.1	CC1(C)CC(=C(c2ccc(N3CCN(C4CCN(c5ccc6c(c5)CN(C5CCC(=O)NC5=O)C6=O)CC4)CC3)cc2)c2ccc3[nH]ncc3c2)CC(C)(C)O1 (stereo not drawn) [Compound 66]
> 0.1	CC1(C)CC(=C(c2ccc(N3CCN(C4CCN(c5ccc6c(c5)CN(C5CCC(=O)NC5=O)C6=O)CC4)CC3)nc2)c2ccc3[nH]nc(F)c3c2)CC(C)(C)O1 (stereo not drawn) [Compound 67]
< 0.01	CC1(C)CC(=C(c2ccc(N3CCC(CN4CCC(N5Cc6cc7c(cc6C5)C(=O)N(C5CCC(=O)NC5=O)C7)CC4)CC3)nc2)c2ccc3[nH]nc(F)c3c2)CC(C)(C)O1 (stereo not drawn) [Compound 69]
0.01 to 0.1	CC1(C)CC(=C(c2ccc(N3CCC4(CC3)CN(C(=O)CN3Cc5cc6c(cc5C3)C(=O)N(C3CCC(=O)NC3=O)C6)C4)nc2)c2ccc3[nH]nc(F)c3c2)CC(C)(C)O1 (stereo not drawn) [Compound 70]
> 0.1	CC1(C)CC(=C(c2ccc(N3CC4(CCN(C(=O)CN5Cc6cc7c(cc6C5)C(=O)N(C5CCC(=O)NC5=O)C7)C4)C3)nc2)c2ccc3[nH]nc(F)c3c2)CC(C)(C)O1 (stereo not drawn) [Compound 71]
> 0.1	CC1(C)CC(=C(c2ccc(N3CCC4(CN(C(=O)CN5Cc6cc7c(cc6C5)C(=O)N(C5CCC(=O)NC5=O)C7)C4)C3)nc2)c2ccc3[nH]nc(F)c3c2)CC(C)(C)O1 (stereo not drawn) [Compound 72]
> 0.1	CC1(C)CC(=C(c2ccc(N3CCC4(CC3)CN(C(=O)CN3Cc5cc6c(cc5C3)C(=O)N(C3CCC(=O)NC3=O)C6=O)C4)nc2)c2ccc3[nH]nc(F)c3c2)CC(C)(C)O1 (stereo not drawn) [Compound 74]
> 0.1	CC1(C)CC(=C(c2ccc(N3CCC(CN4CCN(c5cccc(N6CCC(=O)NC6=O)c5)CC4)CC3)nc2)c2ccc3[nH]nc(F)c3c2)CC(C)(C)O1 [Compound 75]
0.01 to 0.1	CC1(C)CC(=C(c2ccc(N3CCC(CN4CCN(c5ccc(N6CCC(=O)NC6=O)cc5)CC4)CC3)cc2)c2ccc3[nH]nc(F)c3c2)CC(C)(C)O1 [Compound 76]
> 0.1	CC1(C)CC(=C(c2ccc(N3CCC(N4CCN(c5ccc(N6CCC(=O)NC6=O)cc5)CC4)CC3)cc2)c2ccc3[nH]nc(F)c3c2)CC(C)(C)O1 [Compound 78]
> 0.1	CC1(C)CC(=C(c2ccc(N3CCN(C4CCN(c5ccc(N6CCC(=O)NC6=O)cc5)CC4)CC3)cc2)c2ccc3[nH]nc(F)c3c2)CC(C)(C)O1 [Compound 81]
> 0.1	CC1(C)CC(=C(c2ccc(N3CCN(C4CN(c5ccc(N6CCC(=O)NC6=O)cc5)C4)CC3)cc2)c2ccc3[nH]nc(F)c3c2)CC(C)(C)O1 [Compound 82]
> 0.1	CC1(C)CC(=C(c2ccc(N3CCC(N4CCN(c5ccc(NC6CCC(=O)NC6=O)cc5)CC4)CC3)cc2)c2ccc3[nH]nc(F)c3c2)CC(C)(C)O1 (stereo not drawn) [Compound 86]
> 0.1	CC1(C)CC(=C(c2ccc(N3CCC(CN4CCN(c5ccc(NC6CCC(=O)NC6=O)cc5)CC4)CC3)cc2)c2ccc3[nH]nc(F)c3c2)CC(C)(C)O1 (stereo not drawn) [Compound 87]
> 0.1	CC1(C)CC(=C(c2ccc(N3CCN(C4CCN(c5ccc(NC6CCC(=O)NC6=O)cc5)CC4)CC3)cc2)c2ccc3[nH]nc(F)c3c2)CC(C)(C)O1 (stereo not drawn) [Compound 91]
> 0.1	Cn1nc(N2CCC(=O)NC2=O)c2ccc(C3CCN(CC(=O)N4CCN(c5ccc(C(=C6CC(C)(C)OC(C)(C)C6)c6ccc7[nH]nc(F)c7c6)cn5)CC4)CC3)cc21 [Compound 92]
> 0.1	Cn1nc(N2CCC(=O)NC2=O)c2ccc(C3CCN(CC(=O)N4CCN(c5ccc(C(=C6CC(C)(C)OC(C)(C)C6)c6ccc7[nH]nc(F)c7c6)cn5)CC4)CC3(F)F)cc21 (stereo not drawn) [Compound 93]
> 0.1	Cn1nc(N2CCC(=O)NC2=O)c2ccc(C3CCN(CC(=O)N4CC5(C4)CN(c4ccc(C(=C6CC(C)(C)OC(C)(C)C6)c6ccc7[nH]nc(F)c7c6)cn4)C5)CC3(F)F)cc21 (stereo not drawn) [Compound 94]
> 0.1	Cn1nc(N2CCC(=O)NC2=O)c2ccc(C3CCN(CC(=O)N4CC5(C4)CN(c4ccc(C(=C6CC(C)(C)OC(C)(C)C6)c6ccc7[nH]nc(F)c7c6)cn4)C5)CC3)cc21 [Compound 95]

Compound	DC50 [µM]
CC1(C)CC(=C(c2ccc(N3CCN(C[C@@H]4[C@H]5CN(c6ccc7c(c6)CN(C6CCC(=O)NC6=O)C7=O)C[C@@H]45)CC3)nc2)c2ccc3[nH]nc(F)c3c2)CC(C)(C)O1 (stereo partly drawn) [Compound 52]	> 0.1
CC1(C)CC(=C(c2ccc(N3CCC(F)(CNC4CCN(c5ccc6c(c5)CN(C5CCC(=O)NC5=O)C6=O)CC4)CC3)nc2)c2ccc3[nH]nc(F)c3c2)CC(C)(C)O1 (stereo not drawn) [Compound 61]	< 0.01
CC1(C)CC(=C(c2ccc(N3CCC(CN4CCN(c5ccc(F)c(NC6CCC(=O)NC6=O)c5)CC4)CC3)nc2)c2ccc3[nH]nc(F)c3c2)CC(C)(C)O1 (stereo not drawn) [Compound 83]	< 0.01
CC1(C)CC(=C(c2ccc(N3CC4(CN(C(=O)CN5CCC(c6ccc(NC7CCC(=O)NC7=O)cc6F)CC5)C4)C3)nc2)c2ccc3[nH]nc(F)c3c2)CC(C)(C)O1 (stereo not drawn) [Compound 84]	> 0.1
